Reference: US8252796B2, “1-butyl-2-hydroxyaralkyl piperazine derivatives and the uses as anti-depression medicine thereof” (CSPC Zhonggi Pharmaceutical Technology (Shijiazhuang) Co. …, priority 2008, dated 2012)

What was measured:
[1] = target: T1, reuptake of 5-HT by brain synaptosomes (prefrontal cortex) (Rattus norvegicus, UniProt P31652); assay: Inhibition of [3H]5-HT reuptake by rat brain synaptosomes, single concentration (Example 35); assay type: biochemical; conditions: test substance 10 μmol/L; inhibitory rate of 0.1 mM venlafaxine taken as 100%
T1 construct: from tissue; host or cells: rat prefrontal cortex synaptosomes
Protocol: (§1) Studies on the reuptake of monoamine neurotransmitters by brain synaptosomes was performed, which is a currently important mean adopted in the worldwide in pharmacological studies of central nervous. This method can not only be used to study the action mechanism of a drug, but also be used for screening new drugs acting by this mechanism.
(§2) Male SD rats were sacrificed by cervical dislocation and then the brains thereof were taken out rapidly by decollation and placed on ice. Related rain tissues (for [^3H]5-HT and [^3H]NA reuptake experiment, prefrontal cortex was taken; for [^3H]DA reuptake experiment, striatum was taken) were separated and weighed. 10 times (V/W) of 0.32 mol/L ice-cold sucrose solution was added and was homogenized electrically with glass-teflon. The homogenate was centrifugated at 4° C. at 1000 g×10 min. Then the supernatant was taken and centrifugated at 4° C. at 17000 g×20 min. The precipitation was suspended in 30 volume of KRH Buffer (125 mM NaCl, 4.8 mM KCl, 1.2 mM CaCl2, 1.2 mM MgSO4, 1.0 mM KH2PO4, 22 mM NaHCO3, 25 mM HEPES, 10 mM Glucose, 10 μM Pargyline, 0.2 mg/ml Ascorbic Acid) and then was preserved in an ice bath for use. (for NA reuptake experiment, the cortex needed was suspended in 20 volume of KRH Buffer)
(§3) Stock solution of the test substance was thawed immediately before use and diluted with KBH Buffer to 100 μmol/L, 50 μl thereof was added in 500 μl of total reaction system, and the final concentration was 10 μmol/L. Then 50 μl suspended synaptic prepared above was added and mixed evenly, incubated in water bath for 30 min at 37° C. Then […] [^3H] 5-HT (50 nmol/L [^3H]DA or […] [^3H]NA) was added. After incubated at 37° C. for 10 min, the reaction system was immediately taken out and the reaction was stopped by adding 2 ml of ice-cold 150 mmol/L Tris-HCl buffer solution. The samples were collected on the circular fiberglass membrane by vacuum filtration, and the membrane was washed 3 times with 3 ml of ice-cold Tris-HCl buffer solution. The filtration membrane was removed, baked for 15 min in a far-infrared oven and placed into an EP tube. 1.5 ml scintillation fluid was added overnight and was tested by liquid scintillation counter. For the solvent control total binding tube and the non-specific binding tube, no test substance was added; for the total binding tube, 50 μl solvent was added.

[2] = target: T2, reuptake of NA by brain synaptosomes (prefrontal cortex) (Rattus norvegicus, UniProt Q9WTR4); assay: Inhibition of [3H]NA reuptake by rat brain synaptosomes, single concentration (Example 35); assay type: biochemical; conditions: test substance 10 μmol/L; inhibitory rate of 0.1 mM venlafaxine taken as 100%
T2 construct: from tissue; host or cells: rat prefrontal cortex synaptosomes
Protocol: as §1, §2, §3

[3] = target: T3, reuptake of DA by brain synaptosomes (striatum) (Rattus norvegicus, UniProt P23977); assay: Inhibition of [3H]DA reuptake by rat brain synaptosomes, single concentration (Example 35); assay type: biochemical; conditions: test substance 10 μmol/L; inhibitory rate of 0.1 mM 6-hydroxy DA taken as 100%
T3 construct: from tissue; host or cells: rat striatum synaptosomes
Protocol: as §1, §2, §3

[4] = target: T4, reuptake of [3H]5-HT by prefrontal cortex synaptosomes (Rattus norvegicus, UniProt P31652); assay: IC50 for inhibiting reuptake of [3H]5-HT by brain synaptosomes (Example 36); assay type: biochemical; conditions: mean, n = 3~4
T4 construct: from tissue; host or cells: rat prefrontal cortex synaptosomes
Protocol: as §2, with “The precipitation was suspended in 30 volume of KRH Buffer (125 mM NaCl, 4.8 mM KCl, 1.2 mM CaCl2, 1.2 mM MgSO4, 1.0 mM KH2PO4, 22 mM NaHCO3, 25 mM HEPES, 10 mM Glucose, 10 μM Pargyline, 0.2 mg/ml Ascorbic Acid) and then was preserved in an ice bath for use.” left out
(§4) The compounds were used for the studies on inhibition effect (IC50) on reuptake of [^3H]5-HT/NA/DA. At least 5 concentrations each time were settled for each test compound. Each concentration was determined by the average of double twin tubes and the test was repeated for more than 3 times. A series of concentrations of the compounds were prepared by gradient dilution before use. 50 μl thereof was added in total reaction system. Then 50 μl suspended synaptic membrane was added and mixed evenly, incubated in water bath at 37° C. for 30 min. Then 10 nmol/L [^3H] 5-HT (or 50 nmol/L [^3H]DA or 40 nmol/L [^3H]NA) was added and incubated in water bath at 37° C. for 10 min (for [^3H]NA, incubated for 5 min). For the [^3H]5-HT reuptake experiment, 50 μL of fluoxetine (100 μmol/L) was added to the non-specific binding tube; for the [^3H]DA reuptake experiment, 50 μL of cocaine (600 μmol/L) was added to the non-specific binding tube; for the [^3H]NA reuptake experiment, 50 μL of desipramine (100 μmol/L) was added to the non-specific binding tube; for the solvent control, solvent was added to the total binding tube, but no test compound added.
(§5) Sigmoidal curve fitting was performed for the data obtained from all of the test drugs by Origin 6.1, and the IC50 value was calculated.

[5] = target: T5, reuptake of [3H]NA by prefrontal cortex synaptosomes (Rattus norvegicus, UniProt Q9WTR4); assay: IC50 for inhibiting reuptake of [3H]NA by brain synaptosomes (Example 36); assay type: biochemical; conditions: mean, n = 3~4
T5 construct: from tissue; host or cells: rat prefrontal cortex synaptosomes
Protocol: as §2
(§6) 1. Preparation of Rat Brain Synaptosomes (the Same as Example 35)
as §4, §5

[6] = target: T6, reuptake of [3H]DA by striatum synaptosomes (Rattus norvegicus, UniProt P23977); assay: IC50 for inhibiting reuptake of [3H]DA by brain synaptosomes (Example 36); assay type: biochemical; conditions: mean, n = 3~4
T6 construct: from tissue; host or cells: rat striatum synaptosomes
Protocol: as §2, §6, §4, §5

ICR mice = assay: Mice Forced Swimming Test (in vivo antidepression activity); conditions: for swimming test: immobility time: n = 12, mean±SD
[7] = Pharmacokinetics and bioavailability, single i.v. and oral administration in SD rat; assay type: in vivo; conditions: for bioavailability: oral 50 mg/kg vs i.v. 10 mg/kg
Protocol: To study the pharmacokinetics parameters and the bioavailability of VIII-9, VIII-10 and SIPI5286 when single i.v. and oral administration in SD rat
Eighteen male rats were randomized into 6 groups and were administrated with the three compounds via i.v. and oral route, respectively. The dosage was 10 mg/kg (IV) and 50 mg/kg (PO). The test substance was dissolved in the solution of 5% DMSO/95% HP-β-CD aqueous solution (30%), and were administrated to the animal via i.v. and oral route. Blood plasma was collected at a serial of time points after i.v. and oral administration, and the blood drug concentrations were determined by LC/MS/MS. Then the pharmacokinetics parameters and the bioavailability were calculated based on the blood drug concentrations.

mice = assay: Oral administration acute toxicity in mice; conditions: for mortality (%) / number of died animals: 14 days
[8] = target: T7, 5-HT reuptake, Rat brain synaptosome (Rattus norvegicus, UniProt P31652); assay: 5-HT reuptake, optical isomers (Example 37); assay type: biochemical; conditions: 15 min/37° C.
T7 construct: Rat brain; from tissue; host or cells: rat brain synaptosomes
Excerpt: (§7) 3. Experiment Results (IC50 Value was Obtained by Nonlinear Regression Analysis of Inhibition Rate/Concentration Response Curve)

[9] = target: T8, NE reuptake, Rat hypothalamus synaptosome (Rattus norvegicus, UniProt Q9WTR4); assay: NE reuptake, optical isomers (Example 37); assay type: biochemical; conditions: 20 min/37° C.
T8 construct: hypothalamus; from tissue; host or cells: rat hypothalamus synaptosomes
Excerpt: as §7

[10] = target: T9, DA reuptake, Rat striatum synaptosome (Rattus norvegicus, UniProt P23977); assay: DA reuptake, optical isomers (Example 37); assay type: biochemical; conditions: 15 min/37° C.
T9 construct: Rat striatum; from tissue; host or cells: rat striatum synaptosomes
Excerpt: as §7

[11] = one week oral administration, 10.4 mg/kg
[12] = one week oral administration, 17.3 mg/kg
[13] = one week oral administration, 28.8 mg/kg
[14] = one week oral administration, 48 mg/kg
[15] = single oral administration, 10.4 mg/kg
[16] = single oral administration, 17.3 mg/kg
[17] = single oral administration, 28.8 mg/kg
[18] = single oral administration, 48 mg/kg

T9 sequence (P23977 whole entry): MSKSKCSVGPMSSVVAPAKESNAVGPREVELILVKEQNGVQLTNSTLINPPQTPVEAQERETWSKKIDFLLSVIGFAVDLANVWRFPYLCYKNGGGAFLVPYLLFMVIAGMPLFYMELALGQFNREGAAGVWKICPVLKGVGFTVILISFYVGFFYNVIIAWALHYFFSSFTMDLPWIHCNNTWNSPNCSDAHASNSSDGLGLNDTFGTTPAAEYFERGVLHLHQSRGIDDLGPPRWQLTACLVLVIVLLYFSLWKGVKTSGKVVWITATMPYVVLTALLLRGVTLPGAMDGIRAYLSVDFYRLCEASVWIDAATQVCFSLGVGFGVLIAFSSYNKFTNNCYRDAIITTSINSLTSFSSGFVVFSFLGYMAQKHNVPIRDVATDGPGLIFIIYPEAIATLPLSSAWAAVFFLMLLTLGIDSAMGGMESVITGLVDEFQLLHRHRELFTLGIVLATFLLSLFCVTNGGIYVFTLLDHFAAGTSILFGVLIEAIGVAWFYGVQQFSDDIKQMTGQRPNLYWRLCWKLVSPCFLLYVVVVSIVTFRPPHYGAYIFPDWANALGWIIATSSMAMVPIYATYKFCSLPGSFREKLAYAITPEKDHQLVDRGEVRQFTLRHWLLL
T7 sequence (P31652 whole entry): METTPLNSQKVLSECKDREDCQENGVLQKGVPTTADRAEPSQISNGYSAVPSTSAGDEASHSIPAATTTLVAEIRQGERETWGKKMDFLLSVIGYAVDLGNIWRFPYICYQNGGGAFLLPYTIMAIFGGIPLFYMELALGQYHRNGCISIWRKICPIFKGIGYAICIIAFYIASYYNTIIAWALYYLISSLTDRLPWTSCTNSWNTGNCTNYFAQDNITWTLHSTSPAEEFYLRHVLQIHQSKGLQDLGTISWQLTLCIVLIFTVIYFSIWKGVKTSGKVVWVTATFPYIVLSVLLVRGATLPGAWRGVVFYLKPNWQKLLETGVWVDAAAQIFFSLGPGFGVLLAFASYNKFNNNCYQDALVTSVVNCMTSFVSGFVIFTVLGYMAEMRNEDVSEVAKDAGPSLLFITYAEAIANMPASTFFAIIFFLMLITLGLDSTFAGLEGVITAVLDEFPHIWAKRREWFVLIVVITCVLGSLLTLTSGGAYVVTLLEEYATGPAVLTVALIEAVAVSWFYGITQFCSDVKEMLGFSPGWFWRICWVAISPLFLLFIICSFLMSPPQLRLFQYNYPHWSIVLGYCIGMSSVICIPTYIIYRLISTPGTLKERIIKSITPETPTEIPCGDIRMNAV
T8 sequence (Q9WTR4 1-597): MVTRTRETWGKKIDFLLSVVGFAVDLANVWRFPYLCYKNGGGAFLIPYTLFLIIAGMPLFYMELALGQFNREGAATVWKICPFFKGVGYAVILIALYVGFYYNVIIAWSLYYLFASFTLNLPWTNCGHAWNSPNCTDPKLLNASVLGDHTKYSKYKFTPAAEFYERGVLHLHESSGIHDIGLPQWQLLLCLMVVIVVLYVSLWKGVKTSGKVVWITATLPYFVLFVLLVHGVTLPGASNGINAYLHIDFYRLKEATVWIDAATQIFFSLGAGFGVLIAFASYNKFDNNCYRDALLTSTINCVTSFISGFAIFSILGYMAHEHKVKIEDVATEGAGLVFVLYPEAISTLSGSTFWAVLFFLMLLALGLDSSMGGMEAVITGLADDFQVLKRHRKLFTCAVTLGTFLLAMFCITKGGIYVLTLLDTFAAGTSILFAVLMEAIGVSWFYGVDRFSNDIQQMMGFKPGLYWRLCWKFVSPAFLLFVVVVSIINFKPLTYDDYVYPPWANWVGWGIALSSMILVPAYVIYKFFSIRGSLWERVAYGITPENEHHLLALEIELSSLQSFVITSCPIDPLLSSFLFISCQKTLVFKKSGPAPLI
T3 sequence (P23977 whole entry): as the sequence (P23977 whole entry) above
T6 sequence (P23977 whole entry): as above
T4 sequence (P31652 whole entry): as the sequence (P31652 whole entry) above
T1 sequence (P31652 whole entry): as above
T2 sequence (Q9WTR4 1-597): as the sequence (Q9WTR4 1-597) above
T5 sequence (Q9WTR4 1-597): as above

SMILES	Inhibition on the reuptake of 5-HT(%) [1]	inhibition on the reuptake of NA(%) [2]	inhibition on the reuptake of DA(%) [3]	IC50 [4]	IC50 [5]	IC50 [6]	swimming test: immobility time (ICR mice; [11])	swimming test: immobility time (ICR mice; [12])	swimming test: immobility time (ICR mice; [13])	swimming test: immobility time (ICR mice; [14])	ED50 swimming test (ICR mice; single oral administration)	swimming test: immobility time (ICR mice; [15])	swimming test: immobility time (ICR mice; [16])	swimming test: immobility time (ICR mice; [17])	swimming test: immobility time (ICR mice; [18])	AUC (0-t) ([7]; i.v. 10 mg/kg)	half life (T½) ([7]; i.v. 10 mg/kg)	IC50 [8]	IC50 [9]	IC50 [10]	further results
CCCC[C@H]([C@H](O)c1ccc2c(Cl)c(OC)ccc2c1)N1CCN(Cc2ccccc2)CC1 (racemic) [VIII-10, (1SR,2SR)-N^1-benzyl-N^4-[1-butyl-2-(5′-chloro-6′-methoxyl-2′-naphthyl)hydroxyethyl]piperazine]	136%	145%	133%	272 nM	4730 nM	165 nM	77.6 ± 24.69 s	78.2 ± 25.63 s	51.9 ± 51.23 s	68.3 ± 34.01 s	11.8 mg/kg	81.8 ± 39.34 s	43.4 ± 35.41 s	40.8 ± 40.24 s	64.4 ± 43.01 s	2.93205 µg·h/mL	9.06 h	–	–	–	Cmax ([7]; i.v. 10 mg/kg, (5 min)): 2998.49 µg/L; AUC (0-t) ([7]; oral 50 mg/kg): 5.55224 µg·h/mL; Cmax ([7]; oral 50 mg/kg): 727.20 µg/L; Tmax ([7]; oral 50 mg/kg): 1.67 h; half life (T½) ([7]; oral 50 mg/kg): 16.41 h; bioavailability [7]: 63.78%; mortality (%) (mice; oral 507.8 mg/kg): 0.00%; number of died animals (mice; oral 507.8 mg/kg): 0; mortality (%) (mice; oral 781.2 mg/kg): 33.3%; number of died animals (mice; oral 781.2 mg/kg): 2; mortality (%) (mice; oral 1201.9 mg/kg): 66.7%; number of died animals (mice; oral 1201.9 mg/kg): 4; mortality (%) (mice; oral 1849.1 mg/kg): 83.3%; number of died animals (mice; oral 1849.1 mg/kg): 5; mortality (%) (mice; oral 2844.7 mg/kg): 100%; number of died animals (mice; oral 2844.7 mg/kg): 6; LD50 (95% confidential limit) (mice; oral, male & female, Bliss method): 1048.5 (751.33˜1433.7) mg/kg
CCCCC(C(O)c1ccc2c(Cl)c(OC)ccc2c1)N1CCN(Cc2ccccc2)CC1 (single isomer, unassigned) [IX-24]	–	–	–	–	–	–	–	–	–	–	–	–	–	–	–	–	–	3100 nM	1400 nM	1100 nM	–
CCCCC(C(O)c1ccc2c(Cl)c(OC)ccc2c1)N1CCN(Cc2ccccc2)CC1 [IX-26, (1R,2R)-N^1-benzyl-N^4-[1-butyl-2-(5′-chloro-6′-methoxyl-2′-naphthyl)hydroxyethyl]piperazine]	–	–	–	–	–	–	–	–	–	–	–	–	–	–	–	–	–	1200 nM	1200 nM	1100 nM	–
CCCCC(C(O)c1ccc2c(Cl)c(OC)ccc2c1)N1CCN(Cc2ccccc2)CC1 (single isomer, unassigned) [IX-23]	–	–	–	–	–	–	–	–	–	–	–	–	–	–	–	–	–	1900 nM	2100 nM	1000 nM	–
CCCC[C@H]([C@@H](O)c1ccc2c(Cl)c(OC)ccc2c1)N1CCN(Cc2ccccc2)CC1 (racemic) [VIII-9, (1SR,2RS)-N^1-benzyl-N^4-[1-butyl-2-(5′-chloro-6′-methoxyl-2′-naphthyl)hydroxyethyl]piperazine]	125%	155.2%	117%	73.3 nM	2.8 nM	2.1 nM	93.4 ± 26.71 s	82.1 ± 44.06 s	87.2 ± 40.07 s	91.5 ± 58.14 s	34.3 mg/kg	74.3 ± 46.63 s	119.4 ± 28.02 s	77.4 ± 53.81 s	104.3 ± 75.81 s	4.06059 µg·h/mL	7.83 h	–	–	–	Cmax ([7]; i.v. 10 mg/kg, (5 min)): 2640.94 µg/L; AUC (0-t) ([7]; oral 50 mg/kg): 3.34573 µg·h/mL; Cmax ([7]; oral 50 mg/kg): 352.27 µg/L; Tmax ([7]; oral 50 mg/kg): 1.50 h; half life (T½) ([7]; oral 50 mg/kg): 5.89 h; bioavailability [7]: 16.32%; mortality (%) (mice; oral 507.8 mg/kg): 0%; number of died animals (mice; oral 507.8 mg/kg): 0; mortality (%) (mice; oral 781.2 mg/kg): 0%; number of died animals (mice; oral 781.2 mg/kg): 0; mortality (%) (mice; oral 1201.9 mg/kg): 0%; number of died animals (mice; oral 1201.9 mg/kg): 0; mortality (%) (mice; oral 1849.1 mg/kg): 0%; number of died animals (mice; oral 1849.1 mg/kg): 0; mortality (%) (mice; oral 2844.7 mg/kg): 0%; number of died animals (mice; oral 2844.7 mg/kg): 0
CCCCC(C(O)c1ccc2c(Cl)c(OC)ccc2c1)N1CCN(Cc2ccccc2)CC1 [IX-25, (1R,2S)-N^1-benzyl-N^4-[1-butyl-2-(5′-chloro-6′-methoxyl-2′-naphthyl)hydroxyethyl]piperazine]	–	–	–	–	–	–	–	–	–	–	–	–	–	–	–	–	–	830 nM	140 nM	670 nM	–
